A short description of the data set: in vitro. The following applies: human, hela cells.

The term viability denotes a read-out of living cells in per cent, often relative to untreated cells. In the case of `O=C1NCCCc2nc(Nc3ccccc3)sc21` [CBK087091], under “% viability”, the viability at 28.5 h, 10 µM worked out at 83.8%. The same measure, in the same setting: the same measure for `CC1CN(C)C(C)CC1OC(=O)C(c1ccccc1)c1ccccc1` (centres unmarked) [CBK087393]: 105%; for `C/C(Cl)=C\CN1C(=O)C(=O)c2cc(C)ccc21` [CBK087601]: 92.3%; for `O=C(CNC(=O)c1ccccc1Cl)Nc1ccc(Br)cc1C(=O)c1ccccc1` [CBK087691]: 101%. Same read-out and setting: then `O=C(CSCc1ccccc1)Nc1ccc(S(=O)(=O)N2CCOCC2)cc1` [CBK087885], with 93.3%.

For the molecule `CCc1ccccc1NC(=O)Cc1ccc(OC)cc1` [CBK087898], the viability at 28.5 h, 10 µM (% viability) came out at 85.7%. Still for that read-out and setting: then `COc1ccc(OC(=O)c2cccc(F)c2)c(C(C)=O)c1` [CBK088044], with 89%; and `O=C(NCCOc1ccccc1)NC(=O)C1CCNCC1` [CBK088187T], with 119%. The same measure, in the same setting: the same measure for `CCCCNc1nccnc1-c1ccccc1` [CBK088477]: 90.1%.

Consider `C=CCNc1nccnc1-c1cccc(O)c1` [CBK088505], for which, for the setting “% viability”, the viability at 28.5 h, 10 µM was 88.2%. Same read-out and setting: the same measure for `CCNc1nccnc1-c1ccncc1` [CBK088586]: 119%; for `CCNc1nccnc1-c1ccc(O)cc1` [CBK088589]: 108%. On the same count and under the same terms, the same measure for `c1ccc(-c2nccnc2NCc2ccco2)cc1` [CBK088642]: 94.3%; for `CC(C)CNc1nccnc1-c1cccc(C=O)c1` [CBK088744]: 100%. On the same count and under the same terms, the same measure for `CCC(CO)Nc1nccnc1-c1ccoc1` (centres unmarked) [CBK088756]: 100%. As for `OCCN1CCN(c2nccnc2-c2cccs2)CC1` [CBK088811], the viability at 28.5 h, 10 µM (% viability) stood at 106%. Same read-out and setting: the same measure for `CN1CCCN(c2nccnc2-c2cccc(O)c2)CC1` [CBK088820]: 112%.

On to `CN1CCCN(c2nccnc2-c2cccs2)CC1` [CBK088823], for which the viability at 28.5 h, 10 µM (% viability) was 98.5%.

For `CN1CCN(c2nccnc2-c2ccoc2)CC1` [CBK088834], the viability at 28.5 h, 10 µM (% viability) was determined as 98.6%. On the same count and under the same terms, the same measure for `Nc1nn2c(c1Cc1c(Cl)cccc1Cl)OCCC2` [CBK088843]: 92.8%. On the same count and under the same terms, then `OCCNc1nccnc1-c1ccc2c(c1)OCO2` [CBK088984], with 95%; and `NC(=O)c1cccc(-c2nccnc2NCCO)c1` [CBK088993], with 97%.

With `CC(C)[C@H](CO)Nc1nccnc1-c1ccncc1` [CBK089030], the viability at 28.5 h, 10 µM (% viability) was determined as 91.9%. As to `COc1ccc(-c2nccnc2N[C@@H](CO)C(C)C)cc1` [CBK089040], the viability at 28.5 h, 10 µM (% viability) came out at 98.5%. Still for that read-out and setting: then `CC(C)[C@H](CO)Nc1nccnc1-c1cccs1` [CBK089047], with 99%; and `OCC1CCCN1c1nccnc1-c1cccnc1` (centres unmarked) [CBK089049], with 101%; and `OCC1CCCN1c1nccnc1-c1cccc(O)c1` (centres unmarked) [CBK089052], with 109%. Still for that read-out and setting: the same measure for `OCc1ccc(-c2nccnc2N2CCCC2CO)cc1` (centres unmarked) [CBK089053]: 96.3%; for `O=C1CCCN1CCCNc1nccnc1-c1cccnc1` [CBK089246]: 110%; for `Nc1cccc(-c2nccnc2NCc2cccnc2)c1` [CBK089310]: 105%. The same measure, in the same setting: the same measure for `CC(C)(CNC(=O)CN1CCOCC1)NC(=O)OC(C)(C)C` [CBK089350]: 88.7%; for `CCC1CCCCN1C(=O)c1sc(C)nc1C` (centres unmarked) [CBK089359]: 105%; for `CCC1CCCCN1C(=O)c1cc(Br)c(Br)s1` (centres unmarked) [CBK089360]: 92.5%.

For `O=C(Nc1ccccc1Cl)Nc1[nH]nc(O)c1Cc1c(Cl)cccc1Cl` [CBK089367], the viability at 28.5 h, 10 µM (% viability) was 113%. For `CC(C)Nc1nccnc1Sc1ccc(N)cc1` [CBK089485], for the setting “% viability”, the viability at 28.5 h, 10 µM was found to be 77.1%.

Take `CC(C)Nc1nccnc1Sc1ccccc1O` [CBK089492]: the viability at 28.5 h, 10 µM (% viability) stood at 92.1%. Same read-out and setting: the same measure for `CC(C)Nc1nccnc1Sc1cccc2ccccc12` [CBK089493]: 100%; for `CC(C)Nc1cc(Sc2ccc(F)cc2)ncn1` [CBK089498]: 94.2%. On the same count and under the same terms, then `c1ccc2c(Sc3nccnc3N3CCCC3)cccc2c1` [CBK089527], with 89.2%; and `FC(F)(F)c1ccc(Sc2cccc3ccccc23)nc1` [CBK089553], with 93.7%. Still for that read-out and setting: then `Nc1ccc(Sc2nc3ccccc3nc2C(F)(F)F)cc1` [CBK089560], with 100%; and `Cc1ccc(C(=O)N2CN(C(=O)CNC(C)(C)C)CC2(C)C)cc1` [CBK089575C], with 88.6%. Take `Cc1ccc(C(=O)N2CN(C(=O)CNCC(C)C)CC2(C)C)cc1` [CBK089576C]: under “% viability”, the viability at 28.5 h, 10 µM stood at 96%. For `c1ccc2c(Sc3cncc(N4CCCC4)n3)cccc2c1` [CBK089594], under “% viability”, the viability at 28.5 h, 10 µM came out at 88.2%.

With `CC(C)(C)c1ccc(-c2cnc3ncccc3c2O)cc1` [CBK089628], the viability at 28.5 h, 10 µM (% viability) stood at 84.3%.

Turning to `CCNc1cc2ccccc2c(-c2ccc3c(c2)OCCCO3)n1` [CBK089641], the viability at 28.5 h, 10 µM (% viability) was 99.2%. On the same count and under the same terms, the same measure for `CC(=O)c1cc2cnccc2[nH]c1=O` [CBK089771]: 86.5%; for `CC(=O)Cc1nc2ccccc2nc1O` [CBK089805]: 92.2%. Same read-out and setting: the same measure for `NC(=O)c1ccnc(Cl)c1` [CBK089827]: 96%; for `O=C(Nc1cccnc1)c1ccnc(Cl)c1` [CBK089829]: 100%; for `COc1ccc2[nH]c3c(c2c1)CCN[C@]31CCN(CCOc2ccc(F)cc2)C1` [CBK089876T]: 73.6%.

Take `COC(=O)c1sc2cc(C(F)(F)F)cnc2c1-c1cccnc1` [CBK089885]: the viability at 28.5 h, 10 µM (% viability) turned out to be 112%. On the same count and under the same terms, then `COC(=O)c1sc2cc(C(F)(F)F)cnc2c1-c1ccccn1` [CBK089888], with 93.2%; and `O=C(O)c1sc2cc(C(F)(F)F)cnc2c1-c1cccs1` [CBK089890], with 114%. On the same count and under the same terms, then `Oc1c2c(nn1Cc1ccccc1)CCCC2` [CBK089898], with 87.4%. `O=C(Nc1ccc(OC(=O)N2CCCCC2)cc1)N1CCCCC1` [CBK090060]: the viability at 28.5 h, 10 µM was 88.6%. With `O=C(Oc1ccccc1O)c1cccc(Cl)c1` [CBK090130], the viability at 28.5 h, 10 µM (% viability) stood at 97.1%.

For the molecule `Cc1cccc(C(=O)Oc2ccc(-n3ccnc3)cc2)c1` [CBK090137], the viability at 28.5 h, 10 µM (% viability) is 101%. For `O=C(O)c1ccc(OC(=O)C2CCCC2)cc1` [CBK090156], the viability at 28.5 h, 10 µM (% viability) turned out to be 103%. The same measure, in the same setting: then `CN1C2CCCC1CC(OC(=O)c1cccc3nc[nH]c13)C2` (centres unmarked) [CBK090162], with 99.3%. For `COc1ccccc1OC(=O)c1ccccc1Cl` [CBK090164], for the setting “% viability”, the viability at 28.5 h, 10 µM is 81.4%. As to `CN1CCCC(OC(=O)C2CCCCC2)C1` (centres unmarked) [CBK090234], where the note is “% viability”, the viability at 28.5 h, 10 µM stood at 104%. Take `CCOC(=O)N1CCC2(CC1)Oc1ccc(-c3cc(OC)c(OC)c(OC)c3)cc1O2` [CBK090282]: the viability at 28.5 h, 10 µM (% viability, bulk resorufin, single well) was 90.9%. With `COc1cc(Nc2cc(-c3ccc4c(c3)OCO4)ncn2)cc(OC)c1OC` [CBK090704], the viability at 28.5 h, 10 µM (% viability) came out at 101%. The same measure, in the same setting: the same measure for `COc1cc(Nc2cc(-c3ccc(F)c(F)c3)ncn2)cc(OC)c1OC` [CBK090711]: 94.7%; for `CC(=O)Nc1ccc(Nc2cc(-c3ccco3)ncn2)cc1` [CBK090719]: 100%; for `COc1cncc(-c2cc(Nc3cccc(OC)c3OC)ncn2)c1` [CBK090728]: 97.8%. Turning to `COc1cccc(Nc2cc(-c3ccc(N4CCOCC4)cc3)ncn2)c1` [CBK090733], for the setting “% viability”, the viability at 28.5 h, 10 µM worked out at 68.7%.

Consider `COc1cccc(Nc2cc(-c3ccco3)ncn2)c1` [CBK090740], for which the viability at 28.5 h, 10 µM (% viability) was found to be 101%. Regarding `COc1cncc(-c2cc(Nc3ccc(O)cc3)ncn2)c1` [CBK090752], the viability at 28.5 h, 10 µM (% viability) was 98%. Same read-out and setting: the same measure for `COc1ccc(Nc2cc(-c3ccc(CNC(=O)OC(C)(C)C)cc3)ncn2)c(OC)c1` [CBK090757]: 90.8%. On the same count and under the same terms, the same measure for `COc1ccc(Nc2cc(-c3cc(OC)c(OC)c(OC)c3)ncn2)c(OC)c1` [CBK090759]: 95.4%; for `OCCc1ccc(Nc2cc(-c3cccnc3)ncn2)cc1` [CBK090768]: 114%; for `OCCc1ccc(Nc2cc(-c3ccsc3)ncn2)cc1` [CBK090769]: 103%. Consider `NC(=O)c1ccc(-c2cc(Nc3ccc(CCO)cc3)ncn2)cc1` [CBK090773], for which, for the setting “% viability”, the viability at 28.5 h, 10 µM amounted to 102%. Same read-out and setting: then `COc1cncc(-c2cc(Nc3cc(OC)c(OC)cc3C)ncn2)c1` [CBK090782], with 84.9%; and `COc1cc(C)c(Nc2cc(-c3ccc(CC(C)C)cc3)ncn2)cc1OC` [CBK090785], with 91.2%; and `COCCNc1cc(-c2ccccc2N(C)C)ncn1` [CBK090790], with 109%. In the case of `COCCNc1cc(-c2cccc3oc4ccccc4c23)ncn1` [CBK090794], for the setting “% viability”, the viability at 28.5 h, 10 µM worked out at 101%. Turning to `COCCNc1cc(-c2ccco2)ncn1` [CBK090796], the viability at 28.5 h, 10 µM (% viability) came to 92.5%. The same measure, in the same setting: the same measure for `COc1cncc(-c2cc(Nc3ccc(OC)c(OC)c3)ncn2)c1` [CBK090824]: 92%; for `CN(C)c1ccc(-c2cc(NCCc3ccncc3)ncn2)cc1` [CBK090849]: 94.2%. On the same count and under the same terms, then `CN(C)c1ccccc1-c1cc(Nc2ccc3cn[nH]c3c2)ncn1` [CBK090850], with 55.7%; and `c1coc(-c2cc(Nc3ccc4[nH]ccc4c3)ncn2)c1` [CBK090862], with 95.5%. The same measure, in the same setting: then `CCNc1cc(-c2ccco2)ncn1` [CBK090879], with 108%.

As for `CCCCCOc1ccc(Nc2cc(-c3ccc(N(C)C)cc3)ncn2)cc1` [CBK090889], the viability at 28.5 h, 10 µM (% viability) was 106%. Take `CC(C)(C)OC(=O)NCc1ccc(-c2cc(NC3CCCCC3)ncn2)cc1` [CBK090898]: the viability at 28.5 h, 10 µM (% viability) is 98.5%. On the same count and under the same terms, the same measure for `c1coc(-c2cc(NC3CCCCC3)ncn2)c1` [CBK090901]: 91.2%; for `COc1cncc(-c2cc(NC3CCCCC3)ncn2)c1` [CBK090903]: 96.5%.

For the origin of these results see paper PMC12040169 (PLOS Biology, 2025).
